Values of other authors as cited in paper PMC8480965 (The Journal of General Physiology, 2021).

What was measured:
[1] = system: Kv2.1; details: independent binding to each voltage sensor; ref Lee et al., 2003
[2] = system: Kv2.1; details: ref Tilley et al., 2019
[3] = system: Kv2.1; details: sphingomyelin converted to ceramide-1-phosphate; ref Milescu et al., 2009

Row | Substance | inhibition of total gating charge movement per voltage sensor bound [1] [%] | V1/2 of gating charge–voltage (QV) relation ([2]; Kv2.1 in saturating GxTX) [mV] | z of gating charge–voltage (QV) relation ([2]; Kv2.1 in saturating GxTX) | stabilization of voltage sensor in resting conformation with GxTX bound ([2]; estimated previously) | deactivation rate of voltage sensors bound by GxTX [2] | mode of action on Kv2.1 [2] | enhancement of GxTX affinity for Kv2.1 by sphingomyelinase D [3]
1 | Hanatoxin | ~25 | – | – | – | – | – | –
2 | guangxitoxin-1E (EGECGGFWWKCGSGKPACCPKYVCSPKWGLCNFPMP; UniProt P84835 1-36, looked up) [GxTX] | – | 47 ± 1 | 1.6 ± 0.1 e0 | 5,400 fold | faster deactivation rate | partial inverse agonist of Kv2.1 | fourfold
